Measurements taken from ChEMBL document CHEMBL4480430, “Advances in inhibition of protein-protein interactions targeting hypoxia-inducible factor-1 for cancer therapy” (Bioorg Med Chem, 2019).
Blank lines part the entries; values can stand above or below the compound they belong to. Numbered stars: 1 amine (or outer) side, 2 acyl side, 3 side chain; on linkers, the order of the positions; unused ones are H or OH. Square brackets hold non-standard residues; d marks the D form. Peptide text beside a SMILES is read from it. 4Abz(3-OiBu) = CC(C)COc1cc(C(=O)[*:2])ccc1N[*:1]; X3 = CC(C)Oc1cc(C(=O)[*:2])ccc1N[*:1]

Assays:
[1] = target: T1, Histone acetyltransferase p300/Hypoxia-inducible factor 1-alpha (Homo sapiens, UniProt Q09472+Q16665); assay: Inhibition of human fluorescein-labeled HIF-1alpha (786 to 826 residues)/ human GST-fused p300 CH1 domain (323 to 423 residues) protein-protein interaction after 1 hr by fluorescence polarization assay; format: protein-complex assay
Target sequence in this assay (Q09472 whole entry, the tested form may be a part): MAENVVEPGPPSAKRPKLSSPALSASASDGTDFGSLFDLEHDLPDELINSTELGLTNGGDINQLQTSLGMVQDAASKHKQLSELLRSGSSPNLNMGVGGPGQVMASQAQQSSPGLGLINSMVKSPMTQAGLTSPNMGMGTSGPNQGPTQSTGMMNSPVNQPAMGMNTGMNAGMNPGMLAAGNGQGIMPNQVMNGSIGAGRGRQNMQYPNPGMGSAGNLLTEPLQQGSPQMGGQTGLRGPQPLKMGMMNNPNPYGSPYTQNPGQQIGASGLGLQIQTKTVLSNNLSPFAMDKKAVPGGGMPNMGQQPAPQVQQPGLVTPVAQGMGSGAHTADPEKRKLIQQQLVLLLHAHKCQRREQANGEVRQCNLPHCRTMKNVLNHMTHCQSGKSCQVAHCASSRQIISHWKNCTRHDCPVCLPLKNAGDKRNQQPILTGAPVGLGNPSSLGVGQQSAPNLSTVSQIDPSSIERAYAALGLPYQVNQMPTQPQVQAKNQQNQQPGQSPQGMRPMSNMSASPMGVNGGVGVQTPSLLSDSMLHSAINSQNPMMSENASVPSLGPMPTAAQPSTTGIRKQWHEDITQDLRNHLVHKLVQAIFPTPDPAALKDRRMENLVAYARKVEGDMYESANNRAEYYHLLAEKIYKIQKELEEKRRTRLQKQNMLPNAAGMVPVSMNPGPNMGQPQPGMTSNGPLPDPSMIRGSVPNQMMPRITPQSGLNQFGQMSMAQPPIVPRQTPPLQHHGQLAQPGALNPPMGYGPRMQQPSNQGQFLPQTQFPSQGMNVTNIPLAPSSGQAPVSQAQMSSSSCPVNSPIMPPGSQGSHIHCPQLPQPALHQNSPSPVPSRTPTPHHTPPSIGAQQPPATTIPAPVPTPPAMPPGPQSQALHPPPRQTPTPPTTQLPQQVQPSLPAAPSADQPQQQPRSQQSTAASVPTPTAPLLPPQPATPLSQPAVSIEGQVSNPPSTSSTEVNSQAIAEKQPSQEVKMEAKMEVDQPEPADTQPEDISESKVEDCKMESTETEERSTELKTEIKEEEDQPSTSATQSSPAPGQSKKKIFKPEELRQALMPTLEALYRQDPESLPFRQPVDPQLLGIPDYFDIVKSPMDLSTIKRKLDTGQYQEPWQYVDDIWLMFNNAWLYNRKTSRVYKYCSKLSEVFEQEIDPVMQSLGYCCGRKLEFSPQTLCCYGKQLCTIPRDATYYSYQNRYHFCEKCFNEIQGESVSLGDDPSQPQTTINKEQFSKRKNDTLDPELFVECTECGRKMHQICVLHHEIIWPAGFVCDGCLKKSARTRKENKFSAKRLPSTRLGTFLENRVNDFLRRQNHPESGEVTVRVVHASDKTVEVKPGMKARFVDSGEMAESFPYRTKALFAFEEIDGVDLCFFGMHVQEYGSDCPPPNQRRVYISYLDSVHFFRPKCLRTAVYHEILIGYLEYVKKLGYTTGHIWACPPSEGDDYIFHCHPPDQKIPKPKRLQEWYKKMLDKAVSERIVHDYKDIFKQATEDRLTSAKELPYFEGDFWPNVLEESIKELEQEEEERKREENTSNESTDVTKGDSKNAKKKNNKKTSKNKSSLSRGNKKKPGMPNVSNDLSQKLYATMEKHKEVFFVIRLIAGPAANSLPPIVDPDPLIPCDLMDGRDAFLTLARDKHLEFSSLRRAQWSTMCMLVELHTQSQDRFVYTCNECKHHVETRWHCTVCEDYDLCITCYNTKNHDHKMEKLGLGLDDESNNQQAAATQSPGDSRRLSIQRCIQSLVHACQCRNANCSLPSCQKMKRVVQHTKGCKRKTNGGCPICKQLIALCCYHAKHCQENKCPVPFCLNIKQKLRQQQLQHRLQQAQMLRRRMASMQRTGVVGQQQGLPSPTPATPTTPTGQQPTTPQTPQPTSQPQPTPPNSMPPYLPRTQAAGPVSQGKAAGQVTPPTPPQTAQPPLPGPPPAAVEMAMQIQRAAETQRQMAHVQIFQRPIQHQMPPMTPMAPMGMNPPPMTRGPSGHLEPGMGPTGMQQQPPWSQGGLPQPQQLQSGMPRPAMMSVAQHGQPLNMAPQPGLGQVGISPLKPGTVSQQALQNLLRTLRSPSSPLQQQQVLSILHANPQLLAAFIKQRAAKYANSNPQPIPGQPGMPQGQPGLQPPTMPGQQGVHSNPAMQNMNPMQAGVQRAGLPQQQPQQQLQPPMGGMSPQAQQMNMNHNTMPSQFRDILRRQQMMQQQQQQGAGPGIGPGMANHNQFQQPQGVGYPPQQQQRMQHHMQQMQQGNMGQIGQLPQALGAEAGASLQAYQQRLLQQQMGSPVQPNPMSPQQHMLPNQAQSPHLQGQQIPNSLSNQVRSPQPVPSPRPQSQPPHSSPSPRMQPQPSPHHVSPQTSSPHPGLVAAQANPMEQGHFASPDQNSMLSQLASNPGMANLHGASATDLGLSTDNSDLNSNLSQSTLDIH
Target sequence in this assay (Q16665 whole entry, the tested form may be a part): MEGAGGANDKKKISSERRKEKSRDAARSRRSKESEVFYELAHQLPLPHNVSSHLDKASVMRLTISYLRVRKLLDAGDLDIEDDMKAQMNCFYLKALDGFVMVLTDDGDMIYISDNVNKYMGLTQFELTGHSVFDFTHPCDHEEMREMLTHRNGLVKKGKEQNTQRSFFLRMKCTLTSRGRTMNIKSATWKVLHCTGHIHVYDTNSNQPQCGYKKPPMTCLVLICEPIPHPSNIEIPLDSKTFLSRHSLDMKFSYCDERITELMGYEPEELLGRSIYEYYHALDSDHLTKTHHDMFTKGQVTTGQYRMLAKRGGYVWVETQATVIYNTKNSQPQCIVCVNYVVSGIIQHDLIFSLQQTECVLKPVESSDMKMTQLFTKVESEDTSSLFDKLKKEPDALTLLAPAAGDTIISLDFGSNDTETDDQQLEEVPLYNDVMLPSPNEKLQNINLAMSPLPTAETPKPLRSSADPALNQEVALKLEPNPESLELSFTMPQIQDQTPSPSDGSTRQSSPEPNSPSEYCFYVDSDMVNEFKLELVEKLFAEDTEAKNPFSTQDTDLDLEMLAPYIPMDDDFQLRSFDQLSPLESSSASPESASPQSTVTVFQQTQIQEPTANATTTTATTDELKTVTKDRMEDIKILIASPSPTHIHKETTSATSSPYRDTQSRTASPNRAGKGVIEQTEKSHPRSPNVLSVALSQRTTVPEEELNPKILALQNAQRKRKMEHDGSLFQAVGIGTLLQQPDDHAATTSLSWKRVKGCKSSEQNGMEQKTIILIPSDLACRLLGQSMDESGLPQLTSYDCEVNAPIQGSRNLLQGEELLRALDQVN

[2] = target: T2, Histone acetyltransferase p300 (Homo sapiens, UniProt Q09472); assay: Binding affinity to human GST-fused p300 CH1 domain (323 to 423 residues) under hypoxic condition by SPR assay
[3] = target: T3, Hypoxia-inducible factor 1-alpha (Homo sapiens, UniProt Q16665); assay: Binding affinity to Cys255 residue of C-terminal Avi/FLAG-tagged HIF-1alpha (unknown origin) after 1 hr by AlphaScreen assay
Target sequence in this assay (Q16665 whole entry): as the sequence (Q16665 whole entry, the tested form may be a part) above

[4] = target: T3, Hypoxia-inducible factor 1-alpha; assay: Binding affinity to HIF-1alpha (unknown origin) PAS B domain assessed as incorporation at Cys255 residues by mass spectrometry; set-up: concentration or dose not given beside the values
MDA-MB-231 = assay: Antitumor activity against human MDA-MB-231 cells xenografted in mouse assessed as reduction in tumor volume at 15 mg/kg administered on alternative days for 28 days relative to control; format: functional; set-up: scale not given: the % may be the effect or the level left
[5] = target: T3, Hypoxia-inducible factor 1-alpha; assay: Binding affinity to HIF-1alpha (unknown origin) PAS B domain assessed as incorporation at His246 residues by mass spectrometry
[6] = target: T3, Hypoxia-inducible factor 1-alpha; assay: Binding affinity to C-terminal Avi/FLAG-tagged HIF-1alpha (unknown origin) assessed as incorporation at His266 residues by mass spectrometry
[7] = target: T3, Hypoxia-inducible factor 1-alpha; assay: Binding affinity to HIF-1alpha (unknown origin) PAS B domain assessed as incorporation at Cys334 residues by mass spectrometry
[8] = target: T3, Hypoxia-inducible factor 1-alpha; assay: Binding affinity to HIF-1alpha (unknown origin) PAS B domain assessed as incorporation at Lys297 residues by mass spectrometry
[9] = target: T1, Histone acetyltransferase p300/Hypoxia-inducible factor 1-alpha; assay: Inhibition of HIF-1alpha (unknown origin)/p300 (unknown origin) protein-protein interaction by fluorescence anisotropy; format: protein-complex assay
Target sequence in this assay (Q09472 whole entry, the tested form may be a part): as the sequence (Q09472 whole entry, the tested form may be a part) above
Target sequence in this assay (Q16665 whole entry, the tested form may be a part): as the sequence (Q16665 whole entry, the tested form may be a part) above

[10] = target: T1, Histone acetyltransferase p300/Hypoxia-inducible factor 1-alpha; assay: Inhibition of fluorescein-labeled HIF-1alpha (786 to 826 residues) (unknown origin)/GST-fused p300 CH1 domain (323 to 423 residues) (unknown origin) protein-protein interaction at 500 uM after overnight incubation by time-resolved fluorescence assay relative to control; format: protein-complex assay
[11] = target: T1, Histone acetyltransferase p300/Hypoxia-inducible factor 1-alpha; assay: Inhibition of HIF-1alpha/p300 protein-protein interaction in human cells after 2 hrs by immunoprecipitation assay; format: cell-based
Target sequence in this assay (Q09472 whole entry, the tested form may be a part): as the sequence (Q09472 whole entry, the tested form may be a part) above
Target sequence in this assay (Q16665 whole entry, the tested form may be a part): as the sequence (Q16665 whole entry, the tested form may be a part) above

[12] = target: T2, Histone acetyltransferase p300; assay: Binding affinity to human p300 CH1 domain (330 to 420 residues) expressed in Escherichia coli BL21(DE3) by fluorescence anisotropy competition assay
[13] = target: T2, Histone acetyltransferase p300; assay: Binding affinity to p300 CH1 domain (unknown origin) by tryptophan fluorescence assay
[14] = target: T3, Hypoxia-inducible factor 1-alpha; assay: Binding affinity to His-tagged HIF-1alpha (1 to 350 residues) (unknown origin) PAS B domain expressed in Escherichia coli BL21(DE3) by ITC
Target sequence in this assay (Q16665 whole entry): as the sequence (Q16665 whole entry, the tested form may be a part) above

[15] = target: T1, Histone acetyltransferase p300/Hypoxia-inducible factor 1-alpha; assay: Inhibition of HIF-1alpha (unknown origin)/p300 (unknown origin) protein-protein interaction; format: protein-complex assay
Target sequence in this assay (Q09472 whole entry, the tested form may be a part): as the sequence (Q09472 whole entry, the tested form may be a part) above
Target sequence in this assay (Q16665 whole entry, the tested form may be a part): as the sequence (Q16665 whole entry, the tested form may be a part) above

[16] = target: T2, Histone acetyltransferase p300; assay: Binding affinity to p300 (unknown origin) by fluorescence anisotrophy
[17] = target: T1, Histone acetyltransferase p300/Hypoxia-inducible factor 1-alpha; assay: Inhibition of fluorescein-labeled HIF-1alpha (786 to 826 residues) (unknown origin)/GST-fused p300 CH1 domain (323 to 423 residues) (unknown origin) protein-protein interaction after overnight incubation by time-resolved fluorescence assay; format: protein-complex assay
Target sequence in this assay (Q09472 whole entry, the tested form may be a part): as the sequence (Q09472 whole entry, the tested form may be a part) above
Target sequence in this assay (Q16665 whole entry, the tested form may be a part): as the sequence (Q16665 whole entry, the tested form may be a part) above

[18] = target: T3, Hypoxia-inducible factor 1-alpha; assay: Inhibition of HIF-1 dimerization in HEK293 cells after 24 hrs by renilla luciferase reporter gene assay; format: cell-based
Target sequence in this assay (Q16665 whole entry): as the sequence (Q16665 whole entry, the tested form may be a part) above

T2 sequence (Q09472 whole entry, the tested form may be a part): as the sequence (Q09472 whole entry, the tested form may be a part) above

Compound: CC(C)C[C@@H]1NCCN([C@@H](CC(C)C)C(=O)N2CCN([C@@H](CCC(N)=O)C(N)=O)C(=O)[C@@H]2C)C1=O
Activity (MDA-MB-231): 50%

Compound: C=C1C(=O)OC2C1CCC(=C)C1CC(=O)C(=C)C12 (centres undefined)
Activity [5]: 10 to 20%
Activity [6]: 10 to 20%
Activity [7]: 10 to 20%
Activity [4]: > 50%
Activity [8]: 10 to 20%

Compound: CN1C(=O)[C@@]2(Cc3ccc(C[C@]45SS[C@](CO)(C(=O)N4C)N(C)C5=O)cc3)SS[C@]1(CO)C(=O)N2C
IC50 [1]: 1500 nM
Kd [2]: 750 nM

Compound: COc1ccc([C@]2(c3nc(N)[nH]c3-c3ccc(O)cc3)N=C3N=CC=C4c5ccccc5N=C2N43)cc1
inhibition [10]: 27%

Compound: CN1C(=O)[C@]2(Cc3cn([C@]45C[C@@]67SS[C@@](CO)(C(=O)N6[C@H]4Nc4ccccc45)N(C)C7=O)c4ccccc34)SS[C@@]1(CO)C(=O)N2C [CHETOMIN]
IC50 [11]: 540 nM

Compound: COC(=O)/C=C1/OC(c2ccc(O)cc2)=CC1=O
Activity [5]: 10 to 20%
Activity [6]: 10 to 20%
Activity [7]: 10 to 20%
Activity [4]: > 50%
Activity [8]: 10 to 20%

Compound: CCCC[C@@H](C(=O)N1CCN([C@@H](CCC(N)=O)C(N)=O)C(=O)[C@@H]1C)N1CCN[C@@H](CC(C)C)C1=O
Kd [13]: 30000 nM

Compound: COc1ccc(S(=O)(=O)N(Cc2ccc3c(n2)C=CC(C)(C)O3)C2CCC2)cc1OC
IC50 [15]: 280 nM

Compound: CN1C(=O)[C@@]23C[C@]4([C@]56C[C@@]78SS[C@@](CO)(C(=O)N7[C@H]5Nc5ccccc56)N(C)C8=O)c5ccccc5N[C@@H]4N2C(=O)[C@]1(CO)SS3 [CHAETOCIN]
IC50 [15]: 12500 nM

Compound: COc1ccc(S(=O)(=O)N(Cc2ccc3c(c2)C=CC(C)(C)O3)c2ccccc2)cc1OC
IC50 [15]: 590 nM

Compound: C[n+]1c2cc(N)ccc2cc2ccc(N)cc21 [EUFLAVINE]
IC50 [18]: 1000 nM

The next lines start with the values.

IC50 [1]: 600 to 700 nM
Kd [2]: 3620 nM
Compound: CN1C(=O)[C@@]2(Cc3ccc(CCc4ccc(C[C@@]56SS[C@@](CO)(C(=O)N5C)N(C)C6=O)cc4)cc3)NC(=O)[C@]1(CO)SS2

IC50 [3]: 43 nM
Activity [4]: > 50%
Compound: O=[N+]([O-])c1ccc2c(c1)S(=O)(=O)C=C2

Activity [5]: 10 to 20%
Activity [6]: 10 to 20%
Activity [7]: 10 to 20%
Activity [4]: > 50%
Activity [8]: 10 to 20%
Compound: CC1=CC(O)(C#Cc2ccccc2)C=CC1=O (centres undefined)

IC50 [9]: 83000 nM
Compound: CC[C@H](C)[C@H](NC(=O)[C@@H]1CCCN1C(=O)[C@H](C)NC(=O)[C@H](CC(N)=O)NC(=O)[C@@H](NC(=O)[C@H](CCC(=O)O)NC(=O)[C@H](CO)NC(=O)[C@H](CC(=O)O)NC(=O)[C@H](Cc1ccc(O)cc1)NC(=O)[C@H](CO)NC(=O)[C@@H](NC(=O)[C@H](CC(C)C)NC(=O)[C@@H](N)CCC(N)=O)[C@@H](C)O)C(C)C)C(=O)N[C@@H](CCC(N)=O)C(=O)NCC(=O)N[C@@H](CO)C(=O)N[C@@H](CCCNC(=N)N)C(=O)N[C@@H](CC(N)=O)C(=O)N[C@@H](CC(C)C)C(=O)N[C@@H](CC(C)C)C(=O)N[C@@H](CCC(N)=O)C(=O)NCC(=O)Nc1ccc(C(=O)Nc2ccc(C(=O)Nc3ccc(C(=O)NCC(N)=O)cc3OC(C)C)cc2OCC(C)C)cc1OCC(C)C (H-QLTSYDSEVNAPIQGSRNLLQG[4Abz(3-OiBu)][4Abz(3-OiBu)][X3]G-NH2)

IC50 [12]: 24000 nM
Compound: CC(C)COc1cc(C(=O)O)ccc1NC(=O)c1ccc(NC(=O)c2ccc(N)c(OC(C)C)c2)c(OCC(C)C)c1

Kd [14]: 124 nM
Compound: CC(C)C[C@@H]1NC(=O)[C@H](CS)NC(=O)[C@H](Cc2ccc(O)cc2)NC(=O)[C@H](C(C)C)NC(=O)[C@H](Cc2ccccc2)NC(=O)[C@H](CC(C)C)NC1=O

IC50 [9]: 89000 nM
Compound: H-QLTSYDCEVNAPIQGSRNLLQGEELLRALDQVN-OH

Activity [4]: 25%
Compound: C=CC(=O)N1CCc2ccccc21

Kd [16]: 6740 nM
Compound: H-QLTSYDCEVNA-OH

IC50 [12]: 9190 nM
Compound: CC(C)COc1cc(C(=O)Nc2ccc(C(=O)Nc3ccc(C(=O)O)cc3OC(C)C)cc2OCC(C)C)ccc1N

IC50 [17]: 276000 nM
Compound: COc1ccc([C@@]2(c3nc(N)[nH]c3-c3ccc(O)cc3)N=C3N=CC=C4c5ccccc5N=C2N43)cc1

IC50 [15]: 900 nM
Compound: COc1ccc(S(=O)(=O)N(Cc2ccc(CN3CCOCC3)cc2)c2ccccc2)cc1OC

IC50 [15]: 1000 nM
Compound: COc1ccc(S(=O)(=O)N(Cc2ccc(CN3CCOCC3)cc2)C2CCC2)cc1OC
